From a melting point compilation (Tetko et al.; mined from patent text by program, amines drawn as free bases though some values may be those of a salt)

With CC(C)(C)OC(=O)c1nc(-c2ccc([N+](=O)[O-])cc2)[nH]c1-c1ccncc1 the melting point was greater than 280 °C.
O=C(N[C@H](Cc1ccc(F)cc1)[C@@H](O)c1ccc(F)cc1)C1CCCCC1 (racemic) showed a melting point of 203 to 204 °C.
With COCCOC(=O)OC[C@@H]1CC(c2ccc(-c3ccc(N4C[C@H](Cn5ccnn5)OC4=O)cc3F)cn2)=NO1 the melting point was 112 °C.
In the case of CC(=O)c1cnc([N+](=O)[O-])n1C, the melting point is reported as 81 to 83 °C.
COc1ccccc1N1CCN(CCCCNc2cc(Cl)nnc2OC)CC1 showed a melting point of 139 to 150 °C.
In the case of N=C(Nc1ccc(Cl)cc1)Nc1ncc(Cl)cc1OCc1c(F)cccc1Cl, the melting point is reported as 132 to 133 °C.
Work on Nc1ccc(Sc2c(O)c3c(=O)n(-c4ccccc4)c4ccccc4c3oc2=O)cc1 yielded a melting point greater than 300 °C.
CCC1(CC)c2cc(C(=O)O)c(C(=O)O)cc2C(CC)(CC)N1C(=O)c1ccccc1 gave a melting point of 244 to 246 °C.
Cc1nc2c(s1)CC(CO)CC2 (configuration not stated) gave a melting point of 101 to 102 °C.
In the case of CCc1nn2ccc3oc(C)cc3c2c1CC#N, the melting point is reported as 156 to 157 °C.
c1cc2cc(Nc3ncnc4cnc(N5CCOCC5)nc34)ccc2cn1 gave a melting point of 208 to 210 °C.
Compound CC(=O)C(=Cc1ccc(Cl)c([N+](=O)[O-])c1)C(C)=O has a melting point of 110 to 111 °C.
COc1ccc(Cc2ccc3c(c2)OCO3)cc1C showed a melting point of 95 °C.
For Cc1onc(-c2ccc(-c3cscn3)cc2)c1-c1ccc(S(C)(=O)=O)c(F)c1, the melting point was 130 °C.
Compound Cc1oc(-c2ccccc2)nc1COc1ccc(CCCC2OC(=O)NC2=O)cc1O (configuration not stated) has a melting point of 162 to 164 °C.
With CN(C)CC1(C2(O)CCCCC2)Cc2cc3c(cc21)N(S(C)(=O)=O)CC3 (configuration not stated) the melting point was 156 to 158 °C.
Work on CCOC(=O)Cn1cc2c(n1)-c1ccccc1N(C(=O)c1ccc(NC(=O)c3ccc(Cl)cc3Cl)cc1)CC2 yielded a melting point of 164 to 167 °C.
CNC(=O)C1CC(=O)c2nc(C)n(C)c2C1 (configuration not stated) gave a melting point of 194 to 196 °C.
Cc1ccc(Oc2ccccc2-n2cnnn2)c(O)c1 gave a melting point of 157 to 160 °C.
For Cc1ccc(OC2COc3ccc(O)cc3C2O)cn1 (configuration not stated), the melting point was 240 to 241 °C.
In the case of CCOC(=O)c1nn(-c2ccc(Cl)cc2)c(=O)c2c(N)scc12, the melting point is reported as 189 to 191 °C.
Work on CSC1CC(=O)N1CC(=O)NCc1ccccc1 (configuration not stated) yielded a melting point of 84 to 87 °C.
With CCOC(=O)COc1ccc(C=CC(=O)O)cc1 the melting point was 154 °C.
COc1ccc(CNC(=O)c2sc3ccccc3c2Br)cc1 gave a melting point of 123 to 124 °C.
In the case of O=C(O)CSCCCCc1cccc2cncn12, the melting point is reported as 124 to 126 °C.
O=C1OCCN1CCN1CCN(C2Cc3cc(F)ccc3Sc3ccccc32)CC1 (configuration not stated) gave a melting point of 158 to 159 °C.
With COCCNC(=O)c1ccc(C)c(-n2c(C)cc(OCc3ccc(F)cc3CNC(=O)Nc3cc(C(C)(C)C)nn3-c3ccc(Cl)c(O)c3)c(Cl)c2=O)c1 the melting point was 186 to 187 °C.
CCCC(=O)Nc1ccc(CCn2c(=O)n(CCC)c(=O)c3[nH]c(C4CCCC4)nc32)cc1 gave a melting point greater than 270 °C.
In the case of COC(=O)c1c(Cl)nc2cc3c(cc2c1CN1CCN(C)CC1)OCCO3, the melting point is reported as 143 °C.
Compound COc1ccc2cc([C@H](C)C(=O)OCC(=O)COC(=O)c3ccc(CO[N+](=O)[O-])cc3)ccc2c1 has a melting point of 105 to 107 °C.
c1ccc(CCc2nc3cccc4c3n2CCC4)cc1 showed a melting point of 107 to 108 °C.
Work on CC12CC(=O)C3C(CCC4CC(O)CCC43C)C1CCC2C(=O)CCCl (configuration not stated) yielded a melting point of 110 to 112 °C.
O=c1c2ccc([N+](=O)[O-])cc2nc2n1CCC2=Cc1ccccc1 showed a melting point of 196 to 197 °C.
In the case of CCc1c(CC#N)ccc(O)c1O, the melting point is reported as 101 to 103 °C.
CCc1cc2c(cc1OCc1ccccc1)CCC1C2CCC2(C)C(=CCO)CCC12 (configuration not stated) showed a melting point of 61 to 62 °C.
CC(C)CC(NC(=O)C(Cc1c[nH]c2ccccc12)NC(=O)OC(C)(C)C)C(=O)NCCC(=O)CCl (configuration not stated) showed a melting point of 79 to 81 °C.
CCCn1c(=O)c2c(nc(C=Cc3cc(OC)c(OC)cc3S(=O)(=O)N3CCCCC3)n2C)n(CCC)c1=O gave a melting point of 266 to 268 °C.
Work on N#CCCNC(=O)c1cccc(-c2cccc3nc(Cc4cccc(C(F)(F)F)c4)cn23)c1 yielded a melting point of 192 to 193 °C.
O=C(NC1CC1)c1ccc(-c2ccc(C(CC3CCOCC3)c3ccc(S(=O)(=O)C4CC4)cc3)[nH]2)nc1 (configuration not stated) showed a melting point of 134 to 136 °C.
Compound CN(C)C(=O)C1CC2CCC1c1[nH]c3ccccc3c12 (configuration not stated) has a melting point of 231 to 232 °C.
COC(=O)C(c1ccc(O)cc1)N1CC(N2C(=O)c3ccccc3C2=O)C1=O (configuration not stated) gave a melting point of 203 to 204 °C.
With COc1ccc(CC[C@H]2CNCCN2)cc1 the melting point was 125 to 130 °C.
Nc1nc2ccccc2c2sc(CCc3ccccc3)nc12 gave a melting point of 158 to 159 °C.
In the case of N#Cc1ccccc1Oc1cc(-n2cccc2)ccc1O, the melting point is reported as 120 to 122 °C.
With CN1C(=O)C(N)C(c2ccccc2)=Nc2ccccc21 (configuration not stated) the melting point was 178 to 179 °C.
Compound Cc1n[nH]c2cc(-c3nn(C(C)c4oc5ccccc5c(=O)c4-c4cccc(F)c4)c4ncnc(N)c34)ccc12 (configuration not stated) has a melting point of 158 to 161 °C.
Work on CC(=O)NCC1CN(c2cccc(Cl)n2)C1 yielded a melting point of 136 to 138 °C.
Oc1cc2cc(-c3c(F)cccc3F)sc2c(Cl)c1Cl showed a melting point of 161 to 162 °C.
Compound Cc1cc2c(c(C(O)=S)c1)OCCO2 has a melting point of 181 to 183 °C.
Work on COc1cc2c(cc1O)CN(C(C)=O)CC2 yielded a melting point of 142 to 144 °C.
Compound CC(C)(C)c1cc(OCc2cccc(C#N)c2)cc(C(C)(C)C)c1O has a melting point of 78 to 81 °C.
CNC(=O)c1sc2cnccc2c1Oc1ccc(CO)cc1 showed a melting point of 195 to 196 °C.
CCCCc1nc2c(N)nc3cccnc3c2n1CCCCNC(=O)CSc1ccncc1 showed a melting point of 128 to 129 °C.
O=C(Nc1ccccc1)c1cccs1 showed a melting point of 139 to 149 °C.
NC(=O)NN=Cc1ccc(OCCc2coc(-c3ccccc3)n2)cc1 gave a melting point of 221 to 226 °C.
Work on CCOc1cc(OCc2nc(-c3ccco3)oc2C)ccc1CCl yielded a melting point of 145 to 146 °C.
With C=CCSc1cc(C(=O)O)cc(S(N)(=O)=O)c1-c1ccccc1 the melting point was 78 to 81 °C.
Work on COc1cc(OC)c2cnoc2c1 yielded a melting point of 100 to 101 °C.
For Cc1ccc(-c2c(NS(=O)(=O)c3ccc(C(C)(C)C)cc3)ncnc2OCCOc2ncc(SC(C)C)cn2)cc1, the melting point was 162 °C.
Fc1ccc(-c2[nH]c(=S)sc2CCCl)cc1 showed a melting point of 176 °C.
Work on CC(C)(C)NS(=O)(=O)c1c(C(=O)O)sc2ccccc12 yielded a melting point of 180 °C.
O=C(O)c1cnc2ccc(Cl)cc2c1-c1ccccc1 gave a melting point of 269 to 270 °C.
O=C(NOCc1ccccc1)c1cc(F)c(Cl)nc1Cl gave a melting point of 176 to 177 °C.
For COc1ccccc1C1(O)C(O)CCC2CNCC21 (configuration not stated), the melting point was 168 °C.
For NS(=O)(=O)c1cc(C(=O)O)cc(C(F)(F)F)c1, the melting point was 244 to 246 °C.
O=C(O)c1cc(-n2nc3n(c2=O)CCCC3)c(F)cc1Cl showed a melting point of 91 to 94 °C.
For COc1cc(-c2cnc3[nH]cc(C(=O)CC(C)C)c3n2)cc(OC)c1OC, the melting point was 210 to 211 °C.
Compound O=C(c1cccs1)c1cnn2c(-c3cccc(-c4nnn(Cc5cccnc5)n4)c3)ccnc12 has a melting point of 95 °C.
Compound COC(=O)c1ccc(N)cc1S(=O)(=O)NC(C)(C)C has a melting point of 198 to 199 °C.
With OCCc1nc(NCc2ccccn2)c2c(-c3ccccc3)csc2n1 the melting point was 90 to 92 °C.
With COc1ccc(C(=O)Nc2ccc3ccc(S(=O)CCN(C)C)nc3n2)cc1 (configuration not stated) the melting point was 158 °C.
Work on C[Si](C)(C)CCCNC(=O)n1cc(F)c(=O)[nH]c1=O yielded a melting point of 146 to 149 °C.
Compound O=C(O)CCS(=O)(=O)O has a melting point of 74.6 °C.
CC(C)(C)c1cc(OCCCCCc2nnn[nH]2)cc(C(C)(C)C)c1O showed a melting point of 140 to 141 °C.
O=C1CC(c2ccccc2)c2cccc(CCN3CCN(c4nsc5ccccc45)CC3)c2N1 (configuration not stated) gave a melting point of 227 °C.
S=c1[nH]ccn1C1Cc2ccccc2C1 gave a melting point of 210 to 211 °C.
In the case of O=P(O)(O)OP(=O)(O)O, the melting point is reported as 212 °C.
CCOC(=O)c1sc(SC)c2c1CCc1nc(-c3ccccc3)[nH]c1-2 gave a melting point of 218 to 219 °C.
C[C@@H]1NC(=O)C[C@@]1(O)C1CC1 gave a melting point of 133 to 140 °C.
In the case of CNC(=S)C1(c2cnccn2)CCCS1 (configuration not stated), the melting point is reported as 127 °C.
CON1C(C)(C)CC(=O)CC1(C)C gave a melting point of 35 to 38 °C.
In the case of CCS(=O)(=O)c1ccc(-c2coc3ccc(-c4nnc(C)o4)cc23)c(Cl)c1, the melting point is reported as 180 to 181 °C.
Compound CC(C)(C)C(=O)OCn1nc2ccc(NCCCN3CCC(OC(c4ccccc4)c4ccccc4)CC3)nn2c1=O has a melting point of 168 to 171 °C.
With O=[N+]([O-])c1cc(S(=O)c2ccc(-c3ccc(Br)cc3)cc2)ccc1Cl (configuration not stated) the melting point was 173 to 175 °C.
For CN1C(=O)C(C#N)(c2ccc(OCC3CO3)cc2)Sc2ccccc21 (configuration not stated), the melting point was 136 to 139 °C.
Compound CCCCCCCN(CC1(c2ccccc2)CCCC1)C(=O)Nc1ccc(F)cc1F has a melting point of 88 to 90 °C.
Compound CC(C)C(NC(=O)C(C)(N)c1ccc2ccccc2c1)C(=O)Nc1nn(C(=O)OCc2ccccc2)c(=S)s1 (configuration not stated) has a melting point of 125 to 132 °C.
For Cc1nc(C(C)O)c2n1-c1ccc(Cl)cc1C(c1ccccc1Cl)=NC2 (configuration not stated), the melting point was 197 to 199 °C.
Work on CNCCCc1c[nH]c(-c2ccc(F)cc2)c1-c1ccncc1 yielded a melting point of 193 to 198 °C.
Compound CC(C)Sc1cc(SC(C)C)c2ccc3c(SC(C)C)cc(SC(C)C)c4ccc1c2c43 has a melting point of 108 °C.
For Cc1sc2c(Br)c3ccccc3c(-c3ccc(OS(=O)(=O)c4ccc(C(=O)O)c(O)c4)c(C4CCCC4)c3)c2c1C, the melting point was greater than 225 °C.
Compound IC#CCOc1cccnc1 has a melting point of 130 °C.
Compound O=[N+]([O-])Nc1ccnc(Cl)c1 has a melting point of 163 to 164 °C.
With O=C1CCc2cc(OCc3ccccc3)c(O)cc21 the melting point was 140 to 142 °C.
Cc1ccc(S(=O)(=O)NCCc2ccc(C(=O)CBr)cc2)cc1 gave a melting point of 133 to 136 °C.
Work on CCCCCCCSc1nc(C)c(O)c(C)n1 yielded a melting point of 110 to 111 °C.
CC1=C(O)C(=O)C(C)(CC2(O)C=CC=CC2)O1 (configuration not stated) gave a melting point of 122 to 124 °C.
For CS(=O)(=O)NCc1ccc(-n2c(-c3cccnc3N)nc3cc(-c4cccnc4)cnc32)cc1, the melting point was 127 to 129 °C.
Compound COC(=O)c1ccc(N2C(=O)CCC2CN=[N+]=[N-])c([N+](=O)[O-])c1 (configuration not stated) has a melting point of 68 to 70 °C.
Compound CCN(CC)CCNc1ccc(C)c2sc3ccc(OC)cc3c(=O)c12 has a melting point of 81 to 82 °C.
Compound O=C(CC(C[N+](=O)[O-])c1ccccc1)c1ccc(O)cc1 (configuration not stated) has a melting point of 112 to 113 °C.
Work on O=C(CCCCCNC(=O)OCc1ccccc1)NCCc1ccc(O)cc1 yielded a melting point of 108 °C.
